Bounds are passed on as bounds.

In the assay the target is T1, SHP-2 enzyme (Met1-Leu525) (Homo sapiens, UniProt Q06124).
T1 construct: synthetized by Origene, Met1-Leu525, cat #TP750155; purchased Origene TP750155
T1 sequence (Q06124 1-525): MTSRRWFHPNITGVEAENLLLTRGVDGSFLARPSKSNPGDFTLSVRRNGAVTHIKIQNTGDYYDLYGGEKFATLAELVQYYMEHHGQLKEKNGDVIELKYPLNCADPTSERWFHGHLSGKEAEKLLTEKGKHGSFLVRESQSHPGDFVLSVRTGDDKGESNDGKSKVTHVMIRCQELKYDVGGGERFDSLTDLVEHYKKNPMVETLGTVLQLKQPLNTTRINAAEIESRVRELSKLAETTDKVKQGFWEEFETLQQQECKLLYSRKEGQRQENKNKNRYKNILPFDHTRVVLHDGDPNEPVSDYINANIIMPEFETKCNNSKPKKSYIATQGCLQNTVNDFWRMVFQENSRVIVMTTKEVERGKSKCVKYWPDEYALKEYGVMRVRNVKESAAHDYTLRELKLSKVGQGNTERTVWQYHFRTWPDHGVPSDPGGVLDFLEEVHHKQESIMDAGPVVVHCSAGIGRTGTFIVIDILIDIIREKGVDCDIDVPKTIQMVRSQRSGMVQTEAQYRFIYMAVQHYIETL
As to the kind of experiment: SHP2 inhibition enzymatic assay (DiFMUP substrate, IRS1 peptide activation). Format: biochemical. To be noted: SHP2 wt; activated by 500 nM IRS1 peptide; 75 μM DiFMUP substrate. How it is done: SHP2 Inhibition Enzymatic Assay
Assay volume of 20 μL/well was assembled in 384 well black polystyrene low-binding microplates (Greiner), using the following buffer: 60 mM HEPES pH 7.2, 75 mM NaCl, 75 mM KCl, 1 mM EDTA pH 8, 0.05% tween-20, 5 mM DTT. The SHP-2 enzyme (synthetized by Origene, Met1-Leu525, cat #TP750155) was used at a final concentration of 0.5 nM.
Briefly, DMSO serially diluted testing compounds were transferred to the bottom of the assay plate. SHP2 was then added together with the IRS1 peptide. 30 minutes post incubation, the DiFMUP substrate was added to the reaction and incubated 30 min at room temperature. […] The fluorescence was detected by a microplate reader (Envision, PerkinElmer) according to the DiFMUP excitation and emission wavelength. The lower the fluorescence the higher the SHP2 inhibition.
The percentage inhibition is fitted against the compound dilutions with a four-parameter logistic regression. The inflection point (i.e. the concentration at which half-maximal inhibition is achieved) is the IC50.

Broadly, the IC50 is the midpoint of a concentration-inhibition curve. The low end stands for higher potency, the high end for lower potency. `CC1(N)CCN(c2nc3nc(Sc4cccc5c4C(=O)CC5)cnc3[nH]2)CC1` [Example 76, 7-((2-(4-amino-4-methylpiperidin-1-yl)-1H-imidazo[4,5-b]pyrazin-5-yl)thio)-2,3-dihydro-1H-inden-1-one] yielded an IC50 of 0.5 to 3 µM. Under `CC(C)(CNc1nc2nc(Sc3cccnc3C(F)(F)F)cnc2[nH]1)Cc1cccnc1` [Example 113, N-(2,2-dimethyl-3-(pyridin-3-yl)propyl)-5-((2-(trifluoromethyl)pyridin-3-yl)thio)-1H-imidazo[4,5-b]pyrazin-2-amine] stands above 3 µM; under `NC1CCN(c2nc3nc(Sc4cccnc4C(F)(F)F)cnc3[nH]2)CC1` [Example 7, 1-(5-((2-(trifluoromethyl)pyridin-3-yl)thio)-1H-imidazo[4,5-b]pyrazin-2-yl)piperidin-4-amine], 0.5 to 3 µM. Under `CC1(N)CCN(c2nc3nc(Sc4cccc(C#N)c4)cnc3[nH]2)CC1` [Example 26, 3-((2-(4-amino-4-methylpiperidin-1-yl)-1H-imidazo[4,5-b]pyrazin-5-yl)thio)benzonitrile] stands 0.5 to 3 µM; under `CC1(N)CCN(c2nc3nc(Sc4ccc(F)cc4F)cnc3[nH]2)CC1` [Example 20, 1-(5-((2,4-difluorophenyl)thio)-1H-imidazo[4,5-b]pyrazin-2-yl)-4-methylpiperidin-4-amine], below 0.5 µM. With `CC1(N)CCN(c2nc3nc(Sc4ccnc5ncccc45)cnc3[nH]2)CC1` [Example 105, 1-(5-((1,8-naphthyridin-4-yl)thio)-1H-imidazo[4,5-b]pyrazin-2-yl)-4-methylpiperidin-4-amine] the figure was 0.5 to 3 µM; with `CC1(N)CCN(c2nc3nc(Sc4cccc5ccncc45)cnc3[nH]2)CC1` [Example 92, 1-(5-(isoquinolin-8-ylthio)-1H-imidazo[4,5-b]pyrazin-2-yl)-4-methylpiperidin-4-amine], below 0.5 µM; with `CC1(N)CCN(c2nc3ncc(Sc4ccc(-n5nc[nH]c5=O)cc4)nc3[nH]2)CC1` [Example 10, 2-(4-((2-(4-amino-4-methylpiperidin-1-yl)-1H-imidazo[4,5-b]pyrazin-6-yl)thio)phenyl)-2,4-dihydro-3H-1,2,4-triazol-3-one], 0.5 to 3 µM. Consider `COc1ccc2nc(Sc3cnc4[nH]c(N5CCC(C)(N)CC5)nc4n3)ccc2c1` [Example 69, 1-(5-((6-methoxyquinolin-2-yl)thio)-1H-imidazo[4,5-b]pyrazin-2-yl)-4-methylpiperidin-4-amine], for which the IC50 was 0.5 to 3 µM. Under `CC1(N)CCN(c2nc3ncc(Sc4ccccc4)nc3[nH]2)CC1` [Example 11, 4-methyl-1-(6-(phenylthio)-1H-imidazo[4,5-b]pyrazin-2-yl)piperidin-4-amine] stands 0.5 to 3 µM; under `CC1(N)CCN(c2nc3nc(Sc4ccn5nccc5n4)cnc3[nH]2)CC1` [Example 65, 4-methyl-1-(5-(pyrazolo[1,5-a]pyrimidin-5-ylthio)-1H-imidazo[4,5-b]pyrazin-2-yl)piperidin-4-amine], above 3 µM; under `CC1(N)CCN(c2nc3nc(Sc4ccnc(Br)c4)cnc3[nH]2)CC1` [Example 64, 1-(5-((2-bromopyridin-4-yl)thio)-1H-imidazo[4,5-b]pyrazin-2-yl)-4-methylpiperidin-4-amine], 0.5 to 3 µM. With `OCCN1CCCN(c2nc3nc(Sc4cccnc4C(F)(F)F)cnc3[nH]2)CC1` [Example 79, 2-(4-(5-((2-(trifluoromethyl)pyridin-3-yl)thio)-1H-imidazo[4,5-b]pyrazin-2-yl)-1,4-diazepan-1-yl)ethan-1-ol] the figure was 0.5 to 3 µM. Under `CC1(N)CCN(c2nc3nc(Nc4cccc(Cl)c4Cl)cnc3[nH]2)CC1` [Example 121, 2-(4-amino-4-methylpiperidin-1-yl)-N-(2,3-dichlorophenyl)-1H-imidazo[4,5-b]pyrazin-5-amine] stands above 3 µM.

`CC1(N)CCN(c2nc3ncc(-c4cccc(Cl)c4Cl)nc3[nH]2)CC1` [Example 131, 1-[5-(2,3-Dichlorophenyl)-1H-imidazo[4,5-b]pyrazin-2-yl]-4-methylpiperidin-4-amine] returned an IC50 of 0.5 to 3 µM. With `COC(=O)c1ccccc1Sc1cnc2[nH]c(N3CCC(C)(N)CC3)nc2n1` [Example 78, methyl 2-((2-(4-amino-4-methylpiperidin-1-yl)-1H-imidazo[4,5-b]pyrazin-5-yl)thio)benzoate] the figure was 0.5 to 3 µM; with `FC(F)(F)c1ncccc1Sc1cnc2[nH]c(NCC3COCCN3)nc2n1` (stereo not drawn) [Example 111, N-(morpholin-3-ylmethyl)-5-((2-(trifluoromethyl)pyridin-3-yl)thio)-1H-imidazo[4,5-b]pyrazin-2-amine], above 3 µM. Under `CC1(N)CCN(c2nc3nc(Sc4cccc5cnccc45)cnc3[nH]2)CC1` [Example 70, 1-(5-(isoquinolin-5-ylthio)-1H-imidazo[4,5-b]pyrazin-2-yl)-4-methylpiperidin-4-amine] stands below 0.5 µM; under `CC1(N)CCN(c2nc3nc(Sc4nc5ccccc5c(=O)[nH]4)cnc3[nH]2)CC1` [Example 91, 2-((2-(4-amino-4-methylpiperidin-1-yl)-1H-imidazo[4,5-b]pyrazin-5-yl)thio)quinazolin-4(3H)-one], 0.5 to 3 µM; under `CC1(N)CCN(c2nc3nc(Sc4ccc(C#N)cc4C(F)(F)F)cnc3[nH]2)CC1` [Example 19, 4-((2-(4-amino-4-methylpiperidin-1-yl)-1H-imidazo[4,5-b]pyrazin-5-yl)thio)-3-(trifluoromethyl)benzonitrile], below 0.5 µM. Under `CC1(N)CCN(c2nc3nc(Sc4cc(C(F)(F)F)ccc4Cl)cnc3[nH]2)CC1` [Example 36, 1-(5-((2-chloro-5-(trifluoromethyl)phenyl)thio)-1H-imidazo[4,5-b]pyrazin-2-yl)-4-methylpiperidin-4-amine] stands 0.5 to 3 µM. `CN1CCOc2ccc(Sc3cnc4[nH]c(N5CCC(C)(N)CC5)nc4n3)cc21` [Example 67, 4-methyl-1-(5-((4-methyl-3,4-dihydro-2H-benzo[b][1,4]oxazin-6-yl)thio)-1H-imidazo[4,5-b]pyrazin-2-yl)piperidin-4-amine] registered an IC50 above 3 µM. With `CC(C)=Cc1ccccc1Sc1cnc2[nH]c(N3CCC(C)(N)CC3)nc2n1` [Example 75, 4-methyl-1-(5-((2-(2-methylprop-1-en-1-yl)phenyl)thio)-1H-imidazo[4,5-b]pyrazin-2-yl)piperidin-4-amine] the figure was above 3 µM; with `CC1(N)CCN(c2nc3nc(Sc4ccncc4Cl)cnc3[nH]2)CC1` [Example 28, 1-(5-((3-chloropyridin-4-yl)thio)-1H-imidazo[4,5-b]pyrazin-2-yl)-4-methylpiperidin-4-amine], below 0.5 µM. With `O=C1NCC2(CCCN(c3nc4nc(Sc5cccnc5C(F)(F)F)cnc4[nH]3)C2)O1` (stereo not drawn) [Example 83, 7-(5-((2-(trifluoromethyl)pyridin-3-yl)thio)-1H-imidazo[4,5-b]pyrazin-2-yl)-1-oxa-3,7-diazaspiro[4.5]decan-2-one] the figure was above 3 µM; with `N[C@@H]1c2ccccc2CC12CCN(c1nc3nc(Sc4cccnc4C(F)(F)F)c(Cl)nc3[nH]1)CC2` [Example 118, (S)-1′-(6-chloro-5-((2-(trifluoromethyl)pyridin-3-yl)thio)-1H-imidazo[4,5-b]pyrazin-2-yl)-1,3-dihydrospiro[indene-2,4′-piperidin]-1-amine], below 0.5 µM. The molecule `NCC1CCN(c2nc3nc(Sc4cccnc4C(F)(F)F)cnc3[nH]2)CC1` [Example 8, (1-(5-((2-(trifluoromethyl)pyridin-3-yl)thio)-1H-imidazo[4,5-b]pyrazin-2-yl)piperidin-4-yl)methanamine] displayed a 50% inhibitory concentration (IC50) of 0.5 to 3 µM.

For `CC1(N)CCN(c2nc3nc(Sc4ccccc4-c4nccs4)cnc3[nH]2)CC1` [Example 102, 4-methyl-1-(5-((2-(thiazol-2-yl)phenyl)thio)-1H-imidazo[4,5-b]pyrazin-2-yl)piperidin-4-amine], the IC50 was above 3 µM.

`CC1(N)CCN(c2nc3nc(Sc4ccncc4)cnc3[nH]2)CC1` [Example 80, 4-methyl-1-(5-(pyridin-4-ylthio)-1H-imidazo[4,5-b]pyrazin-2-yl)piperidin-4-amine] came in with an IC50 of 0.5 to 3 µM. With `NC1CCCN(c2nc3nc(Sc4cccnc4C(F)(F)F)cnc3[nH]2)CC1` (stereo not drawn) [Example 85, 1-(5-((2-(trifluoromethyl)pyridin-3-yl)thio)-1H-imidazo[4,5-b]pyrazin-2-yl)azepan-4-amine] the figure was 0.5 to 3 µM.

Source of the values: patent US20220289753A1, “SHP2 INHIBITORS” (IRBM S.P.A., priority 2019, published 2022).
